Reference: US12195427B2, “MASP-2 inhibitors and methods of use” (priority 2018, dated 2025)

Molecular target: MASP-2 CCP2-SP (Homo sapiens (Human), UniProt O00187)
Experiment: MASP-2 co-crystallization, X-ray crystallography and structure analysis (H-bonds, van der Waals contacts);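 as to Ligand-pharmacophore element distance, pharmacophore element C2: distance from averaged pharmacophore element to bound ligand; missing value means element absent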;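 as to Ligand-pharmacophore element distance, pharmacophore element C3: distance from averaged pharmacophore element to bound ligand; missing value means element absent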;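 as to Ligand-pharmacophore element distance, pharmacophore element C4: distance from averaged pharmacophore element to bound ligand; missing value means element absent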;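 as to Ligand-pharmacophore element distance, pharmacophore element C5: distance from averaged pharmacophore element to bound ligand; missing value means element absent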
Set-up: van der Waals contact distance, MASP-2 HIS 483 atom CD2 / van der Waals contact distance, MASP-2 HIS 483 atom NE2 / van der Waals contact distance, SER 654 C to compound atom / van der Waals contact distance, SER 654 O to compound atom / van der Waals contact distance, TRP 655 C to compound atom / van der Waals contact distance, MASP-2 GLY 528 atom CA / van der Waals contact distance TRP 655 atom CZ3 / van der Waals contact distance TRP 655 atom N / van der Waals contact distance TRP 655 atom CE3 / van der Waals contact distance GLY 656 atom C / van der Waals contact distance GLY 656 atom CA / van der Waals contact distance GLY 656 atom O / van der Waals contact distance, MASP-2 TYR 607 atom CD1 / van der Waals contact distance, MASP-2 PRO 606 atom O / d(C3,CA1) / d(CA1,N1)2 / d(H4,O1) / d(H4,O2) / d(O1,O2) / d(CA1,O2) / d(CA6,O1) / d(CA6,O2) / d(CA1,C5) / d(O2,H3) / d(N2,C2) / d(CA5,N2) / d(N2,C4) / d(N2,C6) / d(N2,CA3) / d(N2,O3) / d(O4,H2): unit not given beside the values
Source text: This example illustrates the preparation of recombinant MASP-2 protein, based on UniProt O00187, human mannan-binding lectin serine protease 2. Expression constructs for human MASP-2 CCP2-SP and CCP2-SP-6HIS were generated for recombinant expression in E. coli cells.
Typically, crystallization hits were obtained by screening against […] 96-well crystallization reagent kits (GRAS6, GRAS2, Hampton Research; MORPHEUS, Molecular Dimensions; Wizard 1&2 Cryo, Rigaku Reagents) and crystal growth was inspected by optical microscopy. Crystals were used directly or further optimized for X-ray diffraction. Crystals were captured with cryogenic loops and dipped into liquid nitrogen directly or cryoprotected with a 20% glycerol in crystallization formulation before flash-cooling in liquid nitrogen.
Thereafter crystals are transferred once or twice for soaking within the crystallization solution containing the MASP-2 inhibitor.
Crystals were diffracted with synchrotron X-rays of […] and X-ray diffraction datasets were collected at beamlines SSRL BL9-2, BL14-1, BL12-2 as well as ALS sector 5 using Dectris Pilatus and Eiger detectors. Structures were determined by molecular replacement using portions of the structure 1Q3X as search models and partially refined with Buster 2.10.2 or Refmac 5.8. […] When multiple ligand poses were observed, for instance arising from multiple molecules in the asymmetric unit or refined dual poses within the same molecule, only one pose was selected and analyzed.
LigPlot+ calls these ‘nonbonded contacts’ or ‘hydrophobic contacts’. Despite the name, there are atom pairings that include possible H-bonds. Thus, in some instances, the Table A2 also contains H-bond interactions.

[1] = Table A5-1 pharmacophore: distance between elements, S2/S1 region
[2] = Table A5-2 pharmacophore distance, S3/S4 region
[3] = Table A7-1, between pharmacophore elements of the bound compound

Chain of MASP-2 CCP2-SP (O00187 445-686): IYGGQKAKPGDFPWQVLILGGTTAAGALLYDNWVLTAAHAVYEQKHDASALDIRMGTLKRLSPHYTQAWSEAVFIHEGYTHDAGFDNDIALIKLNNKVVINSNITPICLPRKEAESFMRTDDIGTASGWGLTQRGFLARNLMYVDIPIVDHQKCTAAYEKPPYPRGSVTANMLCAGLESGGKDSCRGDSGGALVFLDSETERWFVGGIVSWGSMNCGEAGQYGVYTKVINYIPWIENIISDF
Chain of MASP-2 CCP2-SP (O00187 364-432 partner): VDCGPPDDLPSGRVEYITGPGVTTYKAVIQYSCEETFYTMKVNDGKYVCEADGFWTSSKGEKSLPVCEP

H-bond distance to MASP-2 ASP 627 atom OD2 (Table A1 (H-Bonds), ASP 627 OD2): 3.23 | H-bond distance to MASP-2 GLY 656 atom N (Table A1 (H-Bonds), GLY 656 N): 3.2 | H-bond distance to MASP-2 SER 628 atom O (Table A1 (H-Bonds), SER 628 O): 3.06 | H-bond distance to MASP-2 SER 654 atom O (Table A1 (H-Bonds), SER 654 O): 3.07 | H-bond distance to MASP-2 SER 657 atom O (Table A1 (H-Bonds), SER 657 O): 2.91 | van der Waals contact distance, MASP-2 amino acid atom to compound atom (Table A2): 3.8 | van der Waals contact distance, MASP-2 HIS 483 atom CD2 (Table A2-1): 3.74 | van der Waals contact distance, MASP-2 HIS 483 atom NE2 (Table A2-1): 3.61 | van der Waals contact distance, MASP-2 GLY 528 atom CA (Table A2-2): 3.71 | van der Waals contact distance, MASP-2 PHE 529 atom CE1 (Table A2-3): 3.85 | van der Waals contact distance, MASP-2 amino acid atom to compound atom (Table A2-9, ARG 630, AA atoms CG, CZ): 3.87 | van der Waals contact distance, VAL 653 CG1 to compound atom (Table A2-11): 3.38 | van der Waals contact distance, SER 654 O to compound atom (Table A2-12): 3.85 | van der Waals contact distance, TRP 655 CA to compound atom (Table A2-12): 3.34 | van der Waals contact distance TRP 655 atom CE3 (Table A2-13, MASP-2 TRP 655 CE3, compound atom in line below): 3.65 | van der Waals contact distance TRP 655 atom CZ3 (Table A2-13, MASP-2 TRP 655 CZ3): 3.75 | Ligand-pharmacophore element distance, pharmacophore element C2 (Table A4-1, element C2): 0.54 | Ligand-pharmacophore element distance, pharmacophore element C3 (Table A4-1, element C3): 0.17 | Ligand-pharmacophore element distance, pharmacophore element C4 (Table A4-1, element C4): 0 | Ligand-pharmacophore element distance, pharmacophore element C5 (Table A4-1, element C5): 0 | Ligand-pharmacophore element distance, pharmacophore element C6 (Table A4-1, element C6): 0 | Ligand-pharmacophore element distance, pharmacophore element C7 (Table A4-1, element C7): 0 | Ligand-pharmacophore element distance, pharmacophore element CA1 (Table A4-1, element CA1): 0.64 | Ligand-pharmacophore element distance, pharmacophore element CA2 (Table A4-1, element CA2): 0.64 | Ligand-pharmacophore element distance, pharmacophore element CA3 (Table A4-1, element CA3): 0 | Ligand-pharmacophore element distance, pharmacophore element CA4 (Table A4-1, element CA4): 0 | Ligand-pharmacophore element distance, pharmacophore element CA5 (Table A4-1, element CA5): 0 | Ligand-pharmacophore element distance, pharmacophore element CA6 (Table A4-1, element CA6): 0 | d(C3,CA1) [1]: 2.85 | d(CA1,N1)2 [1]: 1.37 | d(CA1,O1) [1]: 4.27 | d(CA1,O2) [1]: 3.96 | d(H4,O1) [1]: 4.29 | d(H4,O2) [1]: 3.79 | d(O1,O2) [1]: 3.29 | d(N2,C2) [2]: 1.45 | d(N2,CA2) [2]: 5.75 | d(O2,H3) [2]: 4.15 | d(O2,N2) [2]: 2.72 | a(C3, CA1, O1) (Table A6-1 pharmacophore angle): 148.89 | a(CA1, O1, O2) (Table A6-1 pharmacophore angle): 108.56 | a(O1, O2, H4) (Table A6-1 pharmacophore angle): 132.47 | a(N1, CA1, O1) b) (Table A6-1 pharmacophore angle, Methyl-amino-pyridine compounds): 173.13 | a(O1, O2, H3) (Table A6-2 pharmacophore angle): 145.43 | a(O1, O2, N2) (Table A6-2 pharmacophore angle): 144.23 | a(O2, N2, C2) (Table A6-2 pharmacophore angle): 131.10 | a(O2, N2, CA2) (Table A6-2 pharmacophore angle): 156.32 | Pharmacophore torsion angle a(C3, CA1, O1, H4) [3]: 21.88 | Pharmacophore torsion angle a(H4, O1, O2, H3) [3]: 50.54 | Pharmacophore torsion angle a(H4, O1, O2, N2) [3]: 141.99 | Pharmacophore torsion angle a(N1, CA1, O1, H4) [3]: −6.82 | Pharmacophore torsion angle a(O1, H4, O2, CA1) [3]: −80.01 | Pharmacophore torsion angle a(O1, O2, N2, C2) [3]: 117.29 | Pharmacophore torsion angle a(O1, O2, N2, CA2) (Table A7-2, between pharmacophore elements of the bound compound): 126.16
SMILES: Cc1nc(N)ccc1CNC(=O)[C@H](C)NC(=O)[C@H]1C[C@@H](c2ccccc2)CCN1C [compound 1441, (2R,4S)—N—((S)-1-(((6-Amino-2-methylpyridin-3-yl)methyl)amino)-1-oxopropan-2-yl)-1-methyl-4-phenylpiperidine-2-carboxamide]
